Reference: patent publication US11331375B2, “Compositions and methods for regulating leukocyte adhesion” (University of Virginia Patent Foundation, priority 2015, dated 2022)

Columns and labels:
VCAM1 = VCAM1 expression in isolated mesenteric venules; format: cell-based, mouse; details: EC Panx1 KO venules, TNFα 50 ng/mL, exogenous ATP
Description: Male VECadER^T2+/Panx1^fl/fl mice (Tamoxifen or Peanut oil injected) were euthanized by CO2 asphyxiation and subsequent cervical dislocation. Prior to tissue harvesting, fixation was performed by perfusing room temperature 4% paraformaldehyde (PFA) made in PBS through the heart. The mesentery was immediately excised and 2nd order venules were dissected free of surrounding fat and connective tissue and place in 4% PFA for 30 minutes before transfer to 70% ethanol for paraffin embedding. Paraffin sections (4-5 μm in thickness) were de-paraffinized and processed for immunocytochemistry as previously described^10. […]
Following stimulation with TNFα (in vitro: 10 ng/mL; ex vivo: 50 ng/mL), confluent endothelial cell monolayers or isolated mesenteric venules were homogenized in ice cold Triton extraction buffer (50 mM Tris-HCL, 150 mM NaCl , 5 mM EDTA, 1% deoxycholate, 1% NP-40 and 1% Triton-X100 in phosphate buffered saline and pH adjusted to 7.4) containing protease and phosphatase inhibitors. […] Protein concentration was quantified using the BCA method. […] Membranes were then washed and incubated with LiCOR secondary antibodies (1:10,000) and visualized and quantitated using LiCOR Odyssey. […] Data are expressed as mean±SEM (n=3 independent experiments).

Panx1 = test: Cell surface biotinylation after BFA, Panx1; format: cell-based, human; details: HUVEC and HSaVEC; BFA 5 μg/mL, 5 hour
Description: (§1) Cell surface biotinylation was performed as described previously^15. To deplete Cx43 hemichannels from the EC plasma membrane, venous and arterial ECs were grown to confluency in 6-well plates (Western blotting) or 24-well plates (ATP release) and treated with the vesicular exocytosis inhibitor brefeldin A (BFA; 5 μg/mL) for 5 hours at 37° C. Cells were washed once with cold 1× PBS and incubated with cold DMEM (without FBS) and 50 μM CBX at 4° C. for 30 minutes. CBX was added to prevent biotin from passing through Panx1 channels, which may label intracellular proteins. Cells were washed with PBS and incubated at 4° C. for 1 hour in cold PBS (1.5 mL/dish) containing EZ-link-sulfo-NHS-LC-biotin (1 mg/mL) and CBX (50 μM). The cells were washed again with PBS and lysed in PBS-T (PBS+0.5-1% Triton-X 100) containing protease inhibitors. Total protein was quantified using the BCA assay and equal amounts of protein were incubated with Streptavidin-agarose beads for 2 hours at 4° C. to pull down biotinylated (cell surface) proteins. Beads were then washed 5 times with 1× PBS-T, pelleted by centrifugation and proteins eluted by incubation with 5x sample buffer. Eluted proteins were subjected to SDS-PAGE and Western blotting for detection of Cx43 and Panx1.

HUVEC = test: In vitro ATP release assay (luciferin:luciferase), HUVEC; format: cell-based, human; details: HUVEC
Description: (§2) In vitro Human arterial and venous ECs were seeded in 24-well plates pre-coated with 0.2% gelatin and grown to confluency. On the day of experiment, the media was removed from each well and cells were carefully washed twice with warm serum free basal EC medium supplemented with 1% BSA. Cells were then incubated in 300 μL of fresh basal EC medium supplemented with 1% BSA for 30 minutes at 37° C. to allow degradation of extracellular ATP released due to mechanical stimulation during washes. Endogenous ecto-nucleotidases were inhibited by incubating EC monolayers with 300 μM ARL 67156 (Tocris) for 30 minutes at 37° C. Cells were then stimulated with recombinant human TNFα (R&D Systems). For dose response experiments, ECs were incubated with 0.1, 1, 5, 10, 50, or 100 ng/mL recombinant TNFα for 30 minutes at 37° C. For time-course experiments, ECs were stimulated with 10 ng/mL recombinant TNFα for different time points up to 1 hour. In experiments where pharmacological inhibitors were employed, ECs were incubated with antagonists in parallel with ARL 67156 for 30 minutes. To inhibit TNFR1, ECs were incubated with the peptide antagonist of the receptor WP9QY (10 μM; Anaspec). […] Cx hemichannels were inhibited with lanthanum (La^3+; 100 μM; Sigma) and Panx1 channels were blocked with carbenoxolone (CBX; 50 μM; Sigma) and the inhibitory peptide ^10panx1 (200 μM; Genscript). […] The role of caspase activation was assessed by inhibition with the pan-caspase blocker Q-VD-OPh (100 μM; Sigma). Following stimulation with TNFα or vehicle, 150 μL of the cell supernatant was collected and immediately placed into pre-chilled 1.5 mL Eppendorf tubes on ice. All samples were centrifuged at 10,000×g for 5 minutes and 50 μL of each sample was transferred to a white, opaque 96-well plate. Using a FluoStar Omega luminometer, 50 μL of luciferin:luciferase reagent (ATP bioluminescence assay kit HSII; Roche) was injected into each well and luminescence was recorded following a 5s orbital mix. ATP concentration in each sample was calculated from a standard curve for all experiments. Data are presented as a % change in ATP release from baseline (i.e. unstimulated cells) and expressed as mean±SEM (n=5 independent experiments with triplicate measurements).

HSaVEC = test: In vitro ATP release assay (luciferin:luciferase), HSaVEC; format: cell-based, human; details: HSaVEC
Description: as §2

Cx43 hemichannels = test: Cell surface biotinylation after BFA, Cx43; format: cell-based, human; details: HUVEC and HSaVEC; BFA 5 μg/mL, 5 hour
Description: as §1

[1] = BFA 5 μg/mL for 5 hours, TNFα 10 ng/mL 30 min

Row | Compound | VCAM1 upregulation in Panx1 KO mice venules (VCAM1) | expression of Panx1 at the EC surface (Panx1) | TNFα-induced ATP release after Cx hemichannel depletion (HUVEC; [1]) | effect of inhibitor on TNFα-induced ATP release (HUVEC; antagonist 30 min, WP9QY 10 μM, La3+ 100 μM, BFA 5 μg/mL, RuR 20 μM, PP2/PP3 10 μM, Q-VD-OPh 100 μM) | TNFα-induced ATP release after Cx hemichannel depletion (HSaVEC; [1]) | effect of inhibitor on TNFα-induced ATP release (HSaVEC; antagonist 30 min, WP9QY 10 μM, BFA 5 μg/mL, RuR 20 μM, PP2/PP3 10 μM) | expression of Cx43 at the EC surface (Cx43 hemichannels)
1 | Nc1ncnc2c1ncn2[C@@H]1O[C@H](COP(=O)(O)OP(=O)(O)OP(=O)(O)O)[C@@H](O)[C@H]1O [ATP, adenosine 5′ triphosphate] | rescued |  |  |  |  |  | 
2 | C[C@H]1CCC/C=C/[C@@H]2C[C@H](O)C[C@H]2[C@H](O)/C=C/C(=O)O1 [BFA, brefeldin A] |  | without significantly altering | unaffected | ruled out the involvement | unaffected | ruled out the involvement | decreased
